From patent publication US11260066B2, “Inhibiting reduction of lean body mass and inhibiting accumulation of liver fat by administering allulose” (SAMYANG CORPORATION, priority 2017, dated 2022)

What was measured:
[1] = Liver CT: degree of fat deposition in the liver (HU of liver and spleen), human application test; assay type: in vivo
Description: After conducting a screening test for those who heard the detailed description of the purpose and research method of the present example and agreed in writing as subjects, those who met the selection/exclusion criteria were selected. The specific selection criteria are as follows, and the final selected subjects are 99 men and women who are overweight or obese, and the demographic information of the selected subjects is shown in the following Table 1. Ninety nine (99) subjects were randomly assigned to the high-dose group, low-dose group or control group, with including 33 subjects in each test group. In three test groups, the products were mixed in 100 ml of water and were administered orally twice a day. As the daily dose for one test subject, 12 g allulose in the high-dose group, 6 g allulose and 6 g anhydrous glucose in the low-dose group, and 12 g anhydrous glucose in the control group were divided and provided twice a day. It was administered from the day after the random assignment day (0 day), and was taken with drinking water twice at morning and evening with meals for 12 weeks. In order to evaluate the degree of fat deposition in the liver at the time of hospital visit 2 and visit 5, the HU of liver, HU of spleen, HU difference of liver and spleen (Liver minus Spleen), and HU ratio of liver and spleen (Ratio Between Liver and Spleen) after 12 weeks compared to the base time were measured. CT attenuation values (Hounsfield units) were measured in regions of interest (ROI) selected as a homogeneous place avoiding blood vessels in the right lobe of liver and spleen in one non-contrast-enhanced abdominal CT image including both liver and spleen three times, and the average value was taken as each CT attenuation number. Then, the size of each region of interest was designated equally as 120 mm^2. Through liver CT, for HU of liver, HU of spleen, HU difference of liver and spleen (Liver minus Spleen), and HU ratio of liver and spleen (Ratio Between Liver and Spleen) after 12 weeks, technical statistics (mean, standard deviation, median value, minimum value, maximum value) were proposed for the average change compared to the base time. The comparative statistic test for the three groups was performed using ANOVA or Kruscal-Wallis test by testing whether data were normally distributed. When there was a significant difference between the three groups, the multiple comparisons were conducted through Tukey-Kramer method. In order to find out whether there was a difference in the mean change in a group, it was analyzed using Paired t-test or Wilcoxon's signed rank test.

[2] = Blood chemical test (Alkaline phosphatase, AST, ALT, γ-GTP), human application test; assay type: in vivo; settings: for ALT(SGPT), Mean / ALT(SGPT), Median / AST(SGOT), Mean / AST(SGOT), Median / Alkaline phosphatase, Mean / Alkaline phosphatase, Median / γ-GTP, Mean / γ-GTP, Median: ITT 33, time point not given; for ALT, change at 12 weeks compared to the base time / Alkaline phosphatase, change at 12 weeks compared to the base time / γ-GTP, change at 12 weeks compared to the base time: increased in control
Description: After conducting a screening test for those who heard the detailed description of the purpose and research method of the present example and agreed in writing as subjects, those who met the selection/exclusion criteria were selected. The specific selection criteria are as follows, and the final selected subjects are 99 men and women who are overweight or obese, and the demographic information of the selected subjects is shown in the following Table 1. Ninety nine (99) subjects were randomly assigned to the high-dose group, low-dose group or control group, with including 33 subjects in each test group. In three test groups, the products were mixed in 100 ml of water and were administered orally twice a day. As the daily dose for one test subject, 12 g allulose in the high-dose group, 6 g allulose and 6 g anhydrous glucose in the low-dose group, and 12 g anhydrous glucose in the control group were divided and provided twice a day. It was administered from the day after the random assignment day (0 day), and was taken with drinking water twice at morning and evening with meals for 12 weeks. (4) Blood chemical test result The test items performed at screening visit (visit1), visit2 and end visit (visit5) were Alkaline phosphatase, AST, ALT, and γ-GTP. In case of continuous data, for the average change compared to the base time, technical statistics (mean, standard deviation, median value, minimum value, maximum value) were proposed for the average change compared to the base time. The comparative statistic test for the three groups was performed using ANOVA or Kruscal-Wallis test by testing whether data were normally distributed. When there was a significant difference between the three groups, the multiple comparison was conducted through Tukey-Kramer method. In order to find out whether there was a difference in the mean change in a group, it was analyzed using Paired t-test or Wilcoxon's signed rank test. In case of categorical data, technical statistics (frequency, percentage) were proposed, and comparative statistic test was performed between three groups using Chi-square test or Fisher' exact test.

[3] = parameters: species or system human; settings: in vivo
[4] = parameters: species or system human; settings: in vivo; remark: listed apart in the source
Description: Furthermore, the difference of the average change between the three groups at 12 weeks compared to the base time for the items was analyzed in the laboratory test.

[5] = high-dose group: allulose 12 g/d oral, N 33
[6] = low-dose group: allulose 6 g/d + anhydrous glucose 6 g/d oral, 12 weeks, N 32
[7] = low-dose group: allulose 6 g/d + anhydrous glucose 6 g/d oral, N 32
[8] = high-dose group: allulose 12 g/d oral
[9] = high-dose group: allulose 12 g/d, statistically significant before/after
[10] = low-dose group: allulose 6 g/d + anhydrous glucose 6 g/d oral
[11] = low-dose group: allulose 6 g/d + glucose 6 g/d, statistically significant before/after

Structure (SMILES): O=C(CO)C(O)C(O)C(O)CO (centres unmarked) [allulose]
- Liver - Spleen HU, Difference (12 W vs base line) [1, 5]: −1.28 ± 5.36 HU
- Spleen HU Mean, Difference (12 W vs base line) [1, 5]: 0.50 ± 2.77 HU
- Liver HU Mean, 12 W, Mean ([1]; low-dose group: allulose 6 g/d + anhydrous glucose 6 g/d oral, 12 weeks, ITT 33): 55.17 HU
- Liver - Spleen HU (Liver minus Spleen), 12 W, Mean [1, 6]: 4.75 HU
- Spleen HU Mean, 12 W, Mean [1, 6]: 50.66 HU
- Liver HU Mean, Difference (12 W vs base line) ([1]; low-dose group: allulose 6 g/d + anhydrous glucose 6 g/d oral, ITT 33): −0.69 ± 5.17 HU
- Liver - Spleen HU, Difference (12 W vs base line) [1, 7]: −0.55 ± 5.43 HU
- Spleen HU Mean, Difference (12 W vs base line) [1, 7]: −0.41 ± 2.34 HU
- ALT(SGPT), Mean [2, 8]: 22.21 U/L
- ALT(SGPT), Median [2, 8]: 16.00 U/L
- AST(SGOT), Mean [2, 8]: 18.76 U/L
- AST(SGOT), Median [2, 8]: 18.00 U/L
- Alkaline phosphatase, Mean [2, 8]: 183.21 U/L
- Alkaline phosphatase, Median [2, 8]: 169.00 U/L
- γ-GTP, Mean [2, 8]: 18.18 U/L
- γ-GTP, Median [2, 8]: 14.00 U/L
- ALT, change at 12 weeks compared to the base time [2, 9]: reduced
- Alkaline phosphatase, change at 12 weeks compared to the base time [2, 9]: reduced
- γ-GTP, change at 12 weeks compared to the base time [2, 9]: reduced
- ALT(SGPT), Mean [2, 10]: 26.88 U/L
- ALT(SGPT), Median [2, 10]: 19.00 U/L
- AST(SGOT), Mean [2, 10]: 22.64 U/L
- AST(SGOT), Median [2, 10]: 18.00 U/L
- Alkaline phosphatase, Mean [2, 10]: 178.97 U/L
- Alkaline phosphatase, Median [2, 10]: 170.00 U/L
- γ-GTP, Mean [2, 10]: 33.58 U/L
- γ-GTP, Median [2, 10]: 19.00 U/L
- ALT, change at 12 weeks compared to the base time ([2]; low-dose group: allulose 6 g/d + glucose 6 g/d): reduced
- Alkaline phosphatase, change at 12 weeks compared to the base time [2, 11]: reduced
- γ-GTP, change at 12 weeks compared to the base time [2, 11]: reduced
- diastolic blood pressure and pulse rate [3]: did not showed statistically significant difference between three groups
- normality of the urine test [4]: no clinically significant abnormal subject
